Assay results: paper PMC103669 (BMC Pharmacology, 2002)

Columns and labels:
[1] = target: T1, opossum alpha-2C adrenergic receptor (Didelphis virginiana, UniProt P35405, S309A/S310A/S312A/T311V); test: biochemical
[2] = target: T2, opossum alpha-2C adrenergic receptor (Didelphis virginiana, UniProt P35405); test: [3H]rauwolscine saturation binding, CHO membranes, filtration
T2 sequence (P35405 1-469): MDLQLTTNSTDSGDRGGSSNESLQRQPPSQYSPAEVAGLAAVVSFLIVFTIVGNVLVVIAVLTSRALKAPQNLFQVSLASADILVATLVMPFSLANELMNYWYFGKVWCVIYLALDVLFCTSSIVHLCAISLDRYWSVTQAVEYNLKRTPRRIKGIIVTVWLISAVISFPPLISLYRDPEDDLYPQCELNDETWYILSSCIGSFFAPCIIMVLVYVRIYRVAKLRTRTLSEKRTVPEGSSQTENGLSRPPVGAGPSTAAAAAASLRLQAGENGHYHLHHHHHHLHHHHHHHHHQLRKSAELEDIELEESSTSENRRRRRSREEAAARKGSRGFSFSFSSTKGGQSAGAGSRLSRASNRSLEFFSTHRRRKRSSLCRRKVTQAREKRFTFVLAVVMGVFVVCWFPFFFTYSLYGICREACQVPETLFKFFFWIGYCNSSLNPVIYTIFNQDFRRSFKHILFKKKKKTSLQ

[3] = target: opossum alpha-2C adrenergic receptor (Didelphis virginiana, UniProt P35405, S312A/T311V); test: biochemical
[4] = target: T1, opossum alpha-2C adrenergic receptor; test: biochemical; remark: listed apart in the source

T1 sequence (P35405 whole entry S309A/S310A/T311V/S312A): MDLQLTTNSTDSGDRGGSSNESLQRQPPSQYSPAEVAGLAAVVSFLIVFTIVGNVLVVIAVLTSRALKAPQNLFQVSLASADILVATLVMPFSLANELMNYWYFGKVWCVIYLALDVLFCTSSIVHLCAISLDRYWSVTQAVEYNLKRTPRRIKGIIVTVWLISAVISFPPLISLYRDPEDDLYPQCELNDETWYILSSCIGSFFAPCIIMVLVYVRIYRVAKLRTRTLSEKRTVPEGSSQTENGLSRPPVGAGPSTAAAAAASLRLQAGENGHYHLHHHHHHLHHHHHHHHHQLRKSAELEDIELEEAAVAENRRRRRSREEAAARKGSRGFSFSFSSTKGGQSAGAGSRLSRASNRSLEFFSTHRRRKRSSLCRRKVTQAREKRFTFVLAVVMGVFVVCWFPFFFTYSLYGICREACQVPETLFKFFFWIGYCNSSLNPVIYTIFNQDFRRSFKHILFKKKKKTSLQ
Chain of opossum alpha-2C adrenergic receptor (Didelphis virginiana, UniProt P35405, S312A/T311V) (P35405 whole entry T311V/S312A): as the sequence (P35405 whole entry S309A/S310A/T311V/S312A) above, with A309S, A310S counted along it

| Compound | Kd [1] [nM] | Kd [2] [nM] | Kd [3] [nM] | Ki [4] [nM] |
| --- | --- | --- | --- | --- |
| COC(=O)[C@H]1[C@H]2C[C@H]3c4[nH]c5ccccc5c4CCN3C[C@H]2CC[C@@H]1O [[^3H]rauwolscine] | 0.118 ± 0.012 | 0.113 ± 0.008 | 0.105 ± 0.005 | – |
| NC[C@H](O)c1ccc(O)c(O)c1 [norepinephrine] | – | – | – | 71 ± 5 |
